1 molecule from PMC4344389 (Journal of medicinal chemistry, 2015) can be followed below.

Holding throughout (assay type): biochemical
Experiment [1] deals with T1, ALDH3A1 (Homo sapiens, UniProt P30838).
T1 sequence (P30838 1-453): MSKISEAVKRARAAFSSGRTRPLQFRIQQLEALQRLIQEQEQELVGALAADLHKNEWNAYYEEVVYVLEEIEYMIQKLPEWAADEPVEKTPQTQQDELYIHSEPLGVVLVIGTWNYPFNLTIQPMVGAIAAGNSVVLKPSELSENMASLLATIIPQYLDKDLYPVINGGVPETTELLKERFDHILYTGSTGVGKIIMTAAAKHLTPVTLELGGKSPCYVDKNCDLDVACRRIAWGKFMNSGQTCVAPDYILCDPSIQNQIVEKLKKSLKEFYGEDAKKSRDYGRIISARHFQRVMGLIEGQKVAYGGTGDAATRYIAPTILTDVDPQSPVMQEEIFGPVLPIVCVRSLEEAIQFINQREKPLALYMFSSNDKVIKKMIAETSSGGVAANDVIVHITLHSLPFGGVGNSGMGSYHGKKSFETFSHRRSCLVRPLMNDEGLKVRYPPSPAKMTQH
Kind of experiment: Aldehyde dehydrogenase activity assay, benzaldehyde oxidation. Particulars: 20 µM compound.

Experiment [2] concerns the target T2, ALDH1A2 (Homo sapiens, UniProt O94788).
T2 sequence (O94788 1-518): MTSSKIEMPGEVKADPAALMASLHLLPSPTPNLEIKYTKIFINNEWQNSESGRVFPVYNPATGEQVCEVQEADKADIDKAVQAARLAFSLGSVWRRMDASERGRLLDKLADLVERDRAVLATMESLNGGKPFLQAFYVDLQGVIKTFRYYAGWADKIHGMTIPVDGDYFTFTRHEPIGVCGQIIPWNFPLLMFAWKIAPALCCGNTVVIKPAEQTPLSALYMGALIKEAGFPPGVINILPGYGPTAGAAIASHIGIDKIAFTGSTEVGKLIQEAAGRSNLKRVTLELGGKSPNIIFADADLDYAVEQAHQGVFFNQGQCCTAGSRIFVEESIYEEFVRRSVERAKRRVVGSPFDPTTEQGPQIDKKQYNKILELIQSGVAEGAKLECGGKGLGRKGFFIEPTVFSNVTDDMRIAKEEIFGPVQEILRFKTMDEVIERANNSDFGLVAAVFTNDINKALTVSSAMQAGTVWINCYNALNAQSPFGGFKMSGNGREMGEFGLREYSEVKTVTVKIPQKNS
Kind of experiment: Aldehyde dehydrogenase activity assay, propionaldehyde oxidation.

The target in experiment [3] is T3, carboxyl-terminal ALDH domain of rat ALDH1L1 (Rattus norvegicus, UniProt P28037).
T3 sequence (P28037 417-902 limits assumed): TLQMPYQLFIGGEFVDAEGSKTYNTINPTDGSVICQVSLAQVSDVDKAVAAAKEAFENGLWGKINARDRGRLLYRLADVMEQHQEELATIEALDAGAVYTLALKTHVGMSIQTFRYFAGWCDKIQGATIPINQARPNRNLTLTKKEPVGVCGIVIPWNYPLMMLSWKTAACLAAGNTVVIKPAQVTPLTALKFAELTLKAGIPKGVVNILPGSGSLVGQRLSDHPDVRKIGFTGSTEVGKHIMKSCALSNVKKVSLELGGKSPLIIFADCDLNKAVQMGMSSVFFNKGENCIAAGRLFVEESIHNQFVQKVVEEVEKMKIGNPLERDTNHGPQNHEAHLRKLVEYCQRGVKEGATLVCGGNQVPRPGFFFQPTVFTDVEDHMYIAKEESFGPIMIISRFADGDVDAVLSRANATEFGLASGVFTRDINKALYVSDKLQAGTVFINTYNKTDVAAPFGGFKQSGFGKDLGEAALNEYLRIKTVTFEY
The experiment is described as follows: Aldehyde dehydrogenase selectivity test. Particulars: 20 µM compound.

The target in experiment [4] is T4, ALDH1A3 (Homo sapiens, UniProt P47895).
T4 sequence (P47895 1-512): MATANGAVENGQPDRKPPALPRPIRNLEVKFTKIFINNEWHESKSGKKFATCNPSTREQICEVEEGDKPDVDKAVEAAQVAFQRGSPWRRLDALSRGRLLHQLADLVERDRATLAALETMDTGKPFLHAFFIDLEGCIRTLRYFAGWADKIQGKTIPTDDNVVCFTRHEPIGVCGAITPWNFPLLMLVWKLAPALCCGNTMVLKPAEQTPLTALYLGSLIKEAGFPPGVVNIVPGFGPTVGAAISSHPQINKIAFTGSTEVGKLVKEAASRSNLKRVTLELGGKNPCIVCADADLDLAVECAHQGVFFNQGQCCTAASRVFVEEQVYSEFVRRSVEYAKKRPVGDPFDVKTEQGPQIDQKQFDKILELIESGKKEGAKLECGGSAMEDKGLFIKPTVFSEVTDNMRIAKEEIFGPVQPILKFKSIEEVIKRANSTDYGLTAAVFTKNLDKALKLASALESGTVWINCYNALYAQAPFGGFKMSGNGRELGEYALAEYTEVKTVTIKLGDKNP
The experiment is described as follows: Aldehyde dehydrogenase activity assay, propionaldehyde oxidation.

Experiment [5] addresses T5, ALDH5A1 (Homo sapiens, UniProt P51649).
T5 sequence (P51649 48-535): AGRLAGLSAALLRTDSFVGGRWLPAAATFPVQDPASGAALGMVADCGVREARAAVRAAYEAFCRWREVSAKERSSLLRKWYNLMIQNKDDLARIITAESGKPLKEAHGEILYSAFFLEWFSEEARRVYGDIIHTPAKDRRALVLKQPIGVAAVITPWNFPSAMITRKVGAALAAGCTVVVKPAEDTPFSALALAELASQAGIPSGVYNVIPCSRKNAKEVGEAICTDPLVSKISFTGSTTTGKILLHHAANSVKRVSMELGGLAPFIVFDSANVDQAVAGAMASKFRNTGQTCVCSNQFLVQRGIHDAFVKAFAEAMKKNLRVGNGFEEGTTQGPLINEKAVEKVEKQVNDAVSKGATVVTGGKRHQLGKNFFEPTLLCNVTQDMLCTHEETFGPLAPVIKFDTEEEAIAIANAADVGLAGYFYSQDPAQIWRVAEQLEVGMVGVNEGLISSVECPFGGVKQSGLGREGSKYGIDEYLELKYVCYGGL
Kind of experiment: Aldehyde dehydrogenase selectivity test. Particulars: 20 µM compound.

For `CC(C)CCn1c(CN2CCN(C(=O)c3ccco3)CC2)nc2c1c(=O)n(C)c(=O)n2C` [CM026], the “effect on ALDH3A1” value in experiment [1] is given as “no effect”. The “effect on ALDH1A2” value in experiment [2] (20 µM compound) is “no effect”. Moreover, the “effect on aldehyde oxidation catalyzed by ALDH1A2” value in experiment [2] (100 µM compound) is reported as “modestly increased”. For the same molecule, the “effect on ALDH1L1” value in experiment [3] is “no effect”. In addition, in experiment [4] (20 µM compound), the “effect on ALDH1A3” value was “no effect”. The “effect on aldehyde oxidation catalyzed by ALDH1A3” value in experiment [4] (100 µM compound) was “modestly increased”. The “effect on ALDH5A1” value in experiment [5] is “no effect”.
